As a reminder, the IC50 is the midpoint of a concentration-inhibition curve. Usually melting point stands for the temperature, or range, at which the solid turns liquid.

For data set [1], the target named is T1, HSP90α (Homo sapiens, UniProt P07900).
T1 construct: purchased Stressgen Lot B506492
The data set is described as follows: HSP90 binding assay (fluorescent ELISA, competition with biotinylated Geldanamycin). As to conditions: reported as range of IC50's. The protocol: The biochemical assay is described as follows.
Purified HSP90α […] was purchased from Stressgen Lot B506492. Single use aliquots of the 1.15 mg/ml stock were prepared and stored at −80° C. to avoid multiple freeze-thaw cycles.
A Nunc Maxisorb plate was coated overnight at 4° C. with 200 ng of HSP90/well dissolved in DPBS. The following day the plates were washed with TBST and blocked for 2 h at room temperature with blocking buffer (20 mM HEPES pH 7.3, 1 mM EDTA, 5 mM MgCl2, 100 mM KCl, 5% BSA). Blocking buffer was removed by washing plates with TBST, and test compounds dissolved in assay buffer (20 mM HEPES pH 7.3, 1 mM EDTA, 5 mM MgCl2, 100 mM KCl, 1% BSA) were added to plate. […] The reaction is incubated for 60 minutes at room temperature. […] Competitive inhibitory compounds will block this interaction from occurring.
The reactions were stopped by washing the plate with TBST. The binding of the bio-GM is detected by the addition of an Alkaline Phosphatase tagged Streptavidin molecule. A TBST wash eliminates any unbound detection agent, and the Alkaline Phosphate substrate Attophos is introduced. This substrate generates a fluorescent signal at […] when excited at […]. These plates can be monitored on either a Victor 5 or Perkin Elmer Envision multilabel reader.

Data set [2] has as its system SK-BR-3. Nature of the data set: MTS assay (cell viability). It counts as cell-based. As to conditions: Homo sapiens; SK-BR-3 cells, 72 hours with compound, 50% reduction in number of viable cells; read-out: IC50'S(SK-BR-3). The procedure: The anti-proliferative effects of biochemically active compounds were measured utilizing the MTS assay. The generalized procedure is describes as follows:
The cells are then trypsinized and re-plated in 96 well sterile cell culture plates in 130 μl/well growth media at a density that allows confluency of approximately 50% after 72 hours of growth. These starting densities vary across cell lines based on individual doubling times. The day following plating, the cell was treated with an appropriate concentration of compound diluted in DMSO. Cell plates were allowed to grow undisturbed at 37° C., 5% CO2 for 72 h. After 72 hours, 30 μl of a solution of 0.046 mg/ml Phemazine methosulfate (PMS) (Fluka product 68600) and 1.9 mg/ml MTS reagent ([3-(4,5-dimethylthiazol-2-yl)-5-(3 carboxymethoxyphenyl)-2-(4-sulfophenyl)-2H-tetrazolium, inner salt (Promega product G1111) is added directly to the well. Plate is re-incubated at 37° C., 5% CO2 for 4 hr. Plates were then read on the Perkin Elmer Envision to determine absorbance at 490 nm.
Cell viability was determined by measuring the activity of dehydrogenase enzymes in metabolically active cells using a tetrazolium compound, MTS. The assay was performed as described in Promega Technical Bulletin No. 169 (CellTiter 96 Aqueous Non-Radioactive Cell Proliferation Assay). Ten human cancer cell lines were assayed (see, e.g. Table 1). Cells were maintained at 37° C. and 5% CO2 in DMEM media (4.5 g/L glucose) supplemented with 10% heat-inactivated FBS, 10 mM L-glutamine, and 10 mM Hepes pH 7.5. Briefly, cells were seeded in 96-well plates as set forth in Table 1 and incubated for 16-24 hours. Candidate compounds were serially diluted in DMSO, further diluted in cell culture media, and then added to cells (final DMSO concentration of 0.33%). Cells were incubated in the presence of candidate compound for 72 hours. MTS stock solution (MTS 2 gm/L, PMS […] in PBS) was added to the cells (final concentration MTS […] and PMS 7.67 mg/L) and incubated for 4 hours. SDS was added to a final concentration of 1.4% and absorbance at 490 nm was measured within two hours using a plate reader. The IC50 was defined as the concentration of compound that results in a 50% reduction in the number of viable cells as compared to control wells treated with DMSO only (0.33%) and was calculated using non-linear regression analysis. IC50 values were given in Table 3 for the compounds listed.
(Formazan colour is commonly taken as a measure of viable cells.)

For data set [3] the following is noted: aqueous solution; cited from earlier work.
The conditions of data set [4]: clinical trials; cited from earlier work.

Compound `COCCCn1nnnc1-c1cc(-c2cc(C(C)C)ccc2OC)c(O)cc1O` [Compound 16, 5′-isopropyl-2′-methoxy-5-[1-(3-methoxy-propyl)-1H-tetrazol-5-yl]-biphenyl-2,4-diol] had a melting point of 174 to 176 °C. The compound also came in with an IC50 in data set [1] of 1 to 10 µM.
Consider `COc1ccc(C(C)C)cc1-c1cc(-c2nnnn2C2CCC2)c(O)cc1O` [Compound 108, 5-(1-Cyclobutyl-1H-tetrazol-5-yl)-5′-isopropyl-2′-methoxy-biphenyl-2,4-diol], for which the IC50 in data set [2] came out at 13.7 µM.
As for `CO[C@H]1/C=C\C=C(/C)C(=O)NC2=CC(=O)C(NCCN(C)C)=C(C[C@@H](C)C[C@H](OC)[C@H](O)[C@@H](C)/C=C(\C)[C@@H]1OC(N)=O)C2=O` [DMAG, 17-Dimethylaminoethylamino-17-demethoxygeldanamycin], the solubility entry in data set [3] was “low solubility”.
`COc1ccc(C(C)C)cc1-c1cc(-c2nnnn2CCCc2ccccc2)c(O)cc1O` [Compound 100]: the IC50 in data set [2] was 3.22 µM.
In the case of `COc1ccc(C(C)C)cc1-c1cc(-c2nnnn2CCc2ccccc2)c(O)cc1O` [Compound 26, 5′-isopropyl-2′-methoxy-5-(1-phenethyl-1H-tetrazol-5-yl)-biphenyl-2,4-diol], the melting point fell in the range of 206 to 209 °C. In data set [1], this compound gave an IC50 of 10 to 50 µM.
As to `COC1=C2C[C@@H](C)C[C@H](OC)[C@H](O)[C@@H](C)/C=C(\C)[C@H](OC(N)=O)[C@@H](OC)/C=C\C=C(/C)C(=O)NC(=CC1=O)C2=O` [geldanamycin], in data set [3], the solubility entry is on record as “poorly soluble”. Also, the hepatotoxicity entry in data set [4] is recorded as “hepatotoxicity proved problematic”.
Regarding `COCCCn1nnnc1-c1cc(-c2cccc(C(F)(F)F)c2)c(O)cc1O` [Compound 7, 5-[1-(3-methoxy-propyl)-1H-tetrazol-5-yl]-3′-trifluoromethyl-biphenyl-2,4-diol], the melting point fell in the range of 144 to 182 °C. Also, in data set [1], the 50% inhibitory concentration (IC50) fell in the range of 10 to 50 µM. In addition, in data set [2], the IC50 was determined as 15.3 µM.
Regarding `COc1ccc(C(C)C)cc1-c1cc(-c2nnnn2CCCOC(C)C)c(O)cc1O` [Compound 99, 5-[1-(3-Isopropoxy-propyl)-1H-tetrazol-5-yl]-5′-isopropyl-2′-methoxy-biphenyl-2,4-diol], the IC50 in data set [2] was 13.5 µM.
As for `CCCCn1nnnc1-c1cc(-c2cccc(C(=O)N3CCN(CC)CC3)c2)c(O)cc1O` [Compound 50], the IC50 in data set [1] is more than 50 µM.
Turning to `COCCCn1nnnc1-c1cc(-c2cccc(C(=O)NCCC3CCCN3C)c2)c(O)cc1O` (stereo not shown) [Compound 68, 2′,4′-Dihydroxy-5′-[1-(3-methoxypropyl)-1H-tetrazol-5-yl]-biphenyl-3-carboxylic acid [2-(1-methyl-pyrrolidin-2-yl)-ethyl]-amide], the IC50 in data set [1] is more than 50 µM.
Same read-out and setting: then `COc1ccc(C(=O)N2CCC(n3nnnc3-c3cc(-c4cc(C(C)C)ccc4OC)c(O)cc3O)CC2)cc1` [Compound 37, {4-[5-(4,6-dihydroxy-5′-isopropyl-2′-methoxy-biphenyl-3-yl)-tetrazol-1-yl]-piperidin-1-yl}-(4-methoxy-phenyl)-methanone], with 1 to 10 µM; and “5′-(1-Butyl-1H-tetrazol-5-yl-2′,4′-dihydroxy-biphenyl-3-carboxylic acid (3-dimethylamino-propyl)-methyl-amide [Compound 52]”, with more than 50 µM.
Consider `C=CCNC1=C2C[C@@H](C)C[C@H](OC)[C@H](O)[C@@H](C)/C=C(\C)[C@H](OC(N)=O)[C@@H](OC)/C=C\C=C(/C)C(=O)NC(=CC1=O)C2=O` [Compound 17-AAG, 17-Allylamino-17-demethoxygeldanamycin], for which the solubility entry in data set [3] is “low solubility”.
As to `CCCCn1nnnc1-c1cc(-c2cccc(C(=O)OC)c2)c(O)cc1O` [Compound 22], the IC50 in data set [1] lay in the range of 10 to 50 µM.
The same measure, in the same setting: with `COCCCn1nnnc1-c1cc(-c2ccc(F)cc2F)c(O)cc1O` [Compound 84] the figure was more than 50 µM.
On to `COCCCn1nnnc1-c1cc(-c2cccc(C(=O)NCCCN3CCOCC3)c2)c(O)cc1O` [Compound 67, 2′,4′-Dihydroxy-5′-[1-(3-methoxy-propyl)-1H-tetrazol-5-yl]-biphenyl-3-carboxylic Acid (3-morpholin-4-yl-propyl)-amide], for which the IC50 in data set [1] was more than 50 µM.
For the compound `COc1ccc(C(C)C)cc1-c1cc(-c2nnnn2C(C)C)c(O)cc1O` [Compound 110], in data set [2], the IC50 is 1.58 µM.
